Columns and labels:
[1] = WST-1 cell proliferation assay, ORL11 cells; type: cell-based; conditions: human
Protocol: (§1) The WST-1 cell proliferation assay was performed as described previously. Briefly, The cells were plated onto 96-well plates (1×10^3 cells per well) in triplicate and then treated with each reagent at several concentrations for 72 hrs. After treatment, the cells were subjected to the WST-1 cell proliferation assay (Takara Bio, Otsu, Japan) according to the manufacturer’s protocol. This assay is based on the enzymatic cleavage of the tetrazolium salt WST-1 to formazan by cellular mitochondrial dehydrogenases present in viable cells. Therefore, there are […] the value of the WST-1 assay becomes zero. The experiments were performed at least in triplicate. From the assay results, the 50% cytotoxic concentration (CC50) of each reagent was determined.

[2] = tested on: genome-length HCV-RNA (O strain of genotype 1b) replication in Li23-derived ORL8 cells; experiment: ORL8 RL assay; type: cell-based, hepatitis C virus; conditions: for EC50: Hepatitis C virus, Li23, HCV strain O, 72 hrs, RL assay
Protocol: RSc and D7 cells were derived from the cell lines HuH-7 and Li23, respectively, were cultured as described previously, [29]. HuH-7-derived OR6 [13], AH1R [30], and 1B-4R [Ikeda et al., submitted] cells harboring genome-length HCV-RNA and HuH-7-derived polyclonal sOR [31], and RSc-JRN/35B [Ikeda et al., submitted] cells harboring an HCV subgenomic replicon were cultured with medium in the presence of G418 (0.3 mg/ml; Geneticin, Invitrogen, Carlsbad, CA) as described previously. Li23-derived ORL8 [20], ORL11 [20], 1B-4RL [Ikeda et al., submitted], and KAH5RL [Ikeda et al., submitted] cells harboring genome-length HCV-RNA were maintained with medium in the presence of G418 (0.3 mg/ml) as described previously. Li23-derived polyclonal sORL8 and sORL11 cells harboring an HCV replicon, which were established by the transfection of ORN/3-5B/QR,KE,SR RNA into the cured OL8 and OL11 cells, respectively, were also cultured with medium in the presence of G418 (0.3 mg/ml) as described previously. […] Therefore, when HCV-RNA is excluded from the cells or when its level is decreased, the cells are killed in the presence of G418.
RL assay was performed as described previously, [24]. Briefly, the cells were plated onto 24-well plates (2×10^4 cells per well) in triplicate and then treated with each reagent at several concentrations for 72 hrs. After treatment, the cells were subjected to luciferase assay using the RL assay system (Promega, Madison, WI). The experiments were performed at least in triplicate. From the assay results, the 50% effective concentration (EC50) of each reagent was determined.
(§2) The SI value of each reagent was determined by dividing the CC50 value by the EC50 value.

[3] = WST-1 cell proliferation assay, OR6 cells; type: cell-based; conditions: human
Protocol: as §1

[4] = WST-1 cell proliferation assay, sORL11 cells; type: cell-based; conditions: human
Protocol: as §1

[5] = tested on: HCV-RNA replication in OR6 cells; experiment: Combination with IFN-α and/or RBV, OR6 RL assay; type: cell-based, hepatitis C virus; conditions: 72 hrs
Excerpt: We examined the anti-HCV activity of N-89 or N-251 in combination with IFN-α using OR6 and ORL8 assay systems. […] However, such an effect was not clear in the OR6 assay (Fig. S4A). […] Therefore, we next examined the combination effect of RBV in the same way as IFN-α using an ORL8 assay. […] Therefore, we further examined the effect of N89 or N-251 in combination with both IFN-α and RBV using an ORL8 assay.
Supplementary file pone.0072519.s004.tif: Figure S4 Anti-HCV effects of N-89 or N-251 in combination with IFN-α and/or RBV on HCV-RNA replication in OR6 cells. […] (A) Effect of N-89 or N-251 in combination with IFN-α on OR6 assay. OR6 cells were treated with N-89 (upper panel) or N-251 (lower panel) in combination with IFN-α for 72 hrs and subjected to RL assay. (B) Effect of N-89 or N-251 in combination with RBV on OR6 assay. OR6 cells were treated with N-89 (upper panel) or N-251 (lower panel) in combination with RBV for 72 hrs and subjected to RL assay. (C) Effect of N-89 or N-251 in combination with IFN-α and RBV on OR6 assay. OR6 cells were treated with N-89 (upper panel) or N-251 (lower panel) in combination with IFN-α and RBV for 72 hrs and subjected to RL assay. (TIF) Click here for additional data file.

[6] = tested on: authentic 9.6 kb HCV-RNA replication in HCV-O/RLGE cells; experiment: Quantitative RT-PCR of authentic HCV-RNA in HCV-O/RLGE cells; type: cell-based; conditions: Hepatitis C virus, 72 hrs, real-time LightCycler PCR
Protocol: as §2
The RNAs from HCV-RNA replicating cell lines were prepared with an RNeasy extraction kit (Qiagen). The quantitative RT-PCR analysis for HCV-RNA was performed using a real-time LightCycler PCR (Roche Diagnostics, Basel, Switzerland) as described previously, [20].
The genome-length HCV-RNA used in the assay systems described above contains three non-natural elements: RL, neomycin phosphotransferase, and an internal ribosomal entry site of encephalomyocarditis virus. To exclude the possibility that the anti-HCV activity of N-89 or N-251 was due to the inhibition of these three exogenous elements, we examined the anti-HCV activities of N-89 and N-251 using the authentic 9.6 kb HCV-RNA-replicating HCV-O/RLGE cells, which were developed by the introduction of in vitro synthesized HCV-O/RLGE RNA (Fig. 2A) into OR6c cured cells.
Figure 2 Characterization of anti-HCV activities of N-89 and N-251. (A) Schematic gene organization of authentic HCV-RNA (HCV-O/RLGE). The positions of four adaptive mutations - Q1112R, P1115L, E1202G, and K1609E - are indicated by a black star. […] The relative value (%) calculated at each point, when the level in non-treated cells was assigned as 100%, is presented here. Data are expressed as the means±standard deviation of triplicate assays. […]

[7] = WST-1 cell proliferation assay, AH1R cells; type: cell-based; conditions: human
Protocol: as §1

SMILES	CC50 at 72 h [1] [nM]	anti-HCV activity (suppression) ([2]; 1 µM in ORL8 cells, without a decrease in cell viability) [%]	EC50 ([2]; ORL8 assay) [nM]	EC99 value ([2]; ORL8 assay) [µM]	CC50 at 72 h [3] [µM]	CC50 at 72 h [4] [nM]	anti-HCV effect in combination with IFN-α [5]	anti-HCV effect in combination with RBV [5]	EC50 [6] [nM]	CC50 at 72 h [7] [nM]
C1CCCCCC2(CCCCC1)OOCCCOO2 [N-89, 1,2,6,7-Tetraoxaspiro[7.11]nonadecane]	560	> 99	89	1	9	1700	not clear	additive anti-HCV effect	2000	> 500
OCCCCCCC1COOC2(CCCCCCCCCCC2)OOC1 [N-251, 6-(1,2,6,7-tetraoxaspiro[7.11]nonadec-4-yl)hexan-1-ol]	1100	–	100	–	3	3100	not clear	additive anti-HCV effect	1600	490

Source: PMC3758303 (PLoS ONE, 2013)
